From PubChem BioAssay AID328 (DTP/NCI, 2004)
“And” between values parts separate entries of the source, which are not always exact repeats. Equal values may be shown once. Toxic doses and inconclusive results are not listed. Rule for the calls: active = survival T/C of 150% or more; inactive = T/C below 125% in these data.

Test system: BDF1 mice, P388 leukemia ip, median survival T/C
Assay: NCI In Vivo Anticancer Drug Screen. Data for tumor model P388 Leukemia (intraperitoneal) in B6D2F1 (BDF1) mice
Conditions: endpoint: median survival time, higher = longer survival
Procedure, shortened: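 Reported as T/C, where T is the survival measurement in dosed animals and C the same measurement in vehicle controls.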

[1] = dose: 100.0 mg/kg/injection, schedule: Q01DX009 (ip), vehicle: saline with Tween-80
[2] = dose: 200.0 mg/kg/injection, schedule: Q01DX009 (ip), vehicle: saline with Tween-80
[3] = dose: 50.0 mg/kg/injection, schedule: Q01DX009 (ip), vehicle: saline with Tween-80
[4] = dose: 25.0 mg/kg/injection, schedule: Q01DX009 (ip), vehicle: saline with Tween-80

Measured: T/C

CC(C)(C)[O][Pb]([c]1ccccc1)([c]1ccccc1)[c]1ccccc1
inactive: dose: 0.39 mg/kg/injection, schedule: Q01DX009 (ip), vehicle: saline 100 % of control | dose: 0.85 mg/kg/injection, schedule: Q04DX003 (ip), vehicle: saline 105 % of control | dose: 1.02 mg/kg/injection, schedule: Q01DX009 (ip), vehicle: saline 104 % of control and 115 % of control | dose: 1.7 mg/kg/injection, schedule: Q04DX003 (ip), vehicle: saline 110 % of control | dose: 2.34 mg/kg/injection, schedule: Q01DX009 (ip), vehicle: saline 113 % of control and 120 % of control | dose: 3.4 mg/kg/injection, schedule: Q01DX009 (ip), vehicle: saline 90 % of control | dose: 3.4 mg/kg/injection, schedule: Q04DX003 (ip), vehicle: saline 90 % of control | dose: 5.0 mg/kg/injection, schedule: Q04DX003 (ip), vehicle: saline 104 % of control | dose: 5.75 mg/kg/injection, schedule: Q01DX001 (ip), vehicle: Klucel (hydroxypropylcellulose) (HPC) 88 % of control | dose: 7.7 mg/kg/injection, schedule: Q04DX003 (ip), vehicle: saline 86 % of control

O=c1c2ccccc2nc(-c2ccccc2Cl)n1/N=C/c1cccc([N+](=O)[O-])c1
inactive: [1] 93 % of control | [2] 100 % of control

CN(C)P(N)(=S)N(C)C
inactive: [3] 96 % of control | [1] 91 % of control | [2] 96 % of control

COc1cc2c(cc1O)CCCCC2=O
inactive: [4] 109 % of control | [3] 104 % of control | [1] 104 % of control | dose: 100.0 mg/kg/injection, schedule: Q04DX003 (ip), vehicle: Klucel (hydroxypropylcellulose) (HPC) 110 % of control | dose: 200.0 mg/kg/injection, schedule: Q04DX003 (ip), vehicle: Klucel (hydroxypropylcellulose) (HPC) 95 % of control | dose: 400.0 mg/kg/injection, schedule: Q04DX003 (ip), vehicle: Klucel (hydroxypropylcellulose) (HPC) 90 % of control

COc1cc(C(=O)OC2c3ccccc3CCC2N(C)C)cc(OC)c1OC (stereo unspecified)
inactive: dose: 25.0 mg/kg/injection, schedule: Q01DX009 (ip), vehicle: saline 102 % of control | dose: 50.0 mg/kg/injection, schedule: Q01DX009 (ip), vehicle: saline 103 % of control and 107 % of control | dose: 100.0 mg/kg/injection, schedule: Q01DX009 (ip), vehicle: saline 102 % of control

O=C1CN(Cc2ccc3c(c2)OCO3)NO1
inactive: [4] 113 % of control | [3] 106 % of control | [1] 123 % of control | [2] 115 % of control

CC1([CH2][Hg][I])CS(=O)(=O)CC(C)([CH2][Hg][I])O1 (stereo unspecified)
inactive: dose: 5.0 mg/kg/injection, schedule: Q01DX010 (ip), vehicle: carboxymethylcellulose (CMC) 104 % of control | dose: 10.0 mg/kg/injection, schedule: Q01DX010 (ip), vehicle: carboxymethylcellulose (CMC) 109 % of control

C=CCN(CC=C)c1ccc(N(CC)CC)cc1
inactive: dose: 100.0 mg/kg/injection, schedule: Q01DX001 (ip), vehicle: Klucel (hydroxypropylcellulose) (HPC) 87 % of control | dose: 200.0 mg/kg/injection, schedule: Q01DX001 (ip), vehicle: Klucel (hydroxypropylcellulose) (HPC) 95 % of control | dose: 400.0 mg/kg/injection, schedule: Q01DX001 (ip), vehicle: Klucel (hydroxypropylcellulose) (HPC) 100 % of control

COc1ccc(/C=N/n2c(=O)[nH]nc(C)c2=O)c(OC)c1OC
inactive: [1] 100 % of control | [2] 122 % of control | dose: 400.0 mg/kg/injection, schedule: Q01DX009 (ip), vehicle: saline with Tween-80 95 % of control
